Measured values from patent publication US7803801B2, “Aminopyridine compounds having Syk inhibitory activity” (Japan Tobacco, Inc., priority 2005, dated 2010).
Counter-ions that a name gives are not always drawn. Like-named read-outs stand apart in the source and are kept apart here.

What was measured:
[1] = target: GST-Syk Full Protein (human) (Homo sapiens, UniProt P43405); assay: Syk kinase inhibition test (HTRF method); assay type: biochemical
Summary of the method: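 Human GST-Syk full-length (6.4 nM) phosphorylated biotin-EDPDYEWPSA-NH2 (250 nM) with 100 μM ATP in HEPES pH 7.0/MgCl2 buffer, 2% DMSO, 30 min at room temperature. EDTA stop, then HTRF detection (streptavidin-XL665, Eu anti-phosphotyrosine) after 1 h; 665/620 ratio read.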

[2] = test system: cultured human mast cells; assay: Degranulation inhibition test using cultured human mast cells (IgE cross-linking, β-Hexosaminidase release); assay type: cell-based; conditions: Mast cell, cultured human mast cells, read-out: human degranulation ave. IC50
Summary of the method: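 CD34+ cord-blood cells cultured ≥8 weeks with SCF/IL-6/IL-3; FcεRI primed 5 days with rhIL-4 (1 ng/mL) and hIgE (0.5 μg/mL). Compound (0.1% DMSO) preincubated 10 min at 37 °C, then anti-IgE (final 10 μg/mL) 30 min; released β-hexosaminidase read at 405 nm versus total lysate, IC50 (M).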

[3] = Tables 1-x, compounds A, read-out: sykHTRF ave IC50
[4] = HTRF, 100 μM ATP, 30 min room temperature, average, read-out: sykHTRF ave IC50
[5] = anti-hIgE stimulation, β-Hexosaminidase index, average
[6] = Tables 2-x, thiophene compounds B, read-out: sykHTRK ave IC50
[7] = Tables 2-x, thiophene compounds B

| IC50 [1, 4] [nM] | IC50 [2, 5] [nM] | Compound | further results |
| --- | --- | --- | --- |
| – | – | Cc1ccnc(Nc2cccc(-c3cnc(N4CCC[C@H]4C(=O)NCC(F)(F)F)s3)n2)c1 [Compound A-530, N-(2,2,2-trifluoroethyl)-(S)-1-{5-[6-(4-methylpyridin-2-ylamino)pyridin-2-yl]thiazol-2-yl}pyrrolidine-2-carboxamide] | IC50 [1, 3]: < 100 nM; IC50 ([2]; Tables 1-x, compounds A): 100 to 1000 nM |
| < 100 | 100 to 1000 | Cc1ccnc(Nc2cccc(-c3cnc(CCc4ccc(O)cc4)s3)n2)c1 [Compound A-135, 4-(2-{5-[6-(4-methylpyridin-2-ylamino)pyridin-2-yl]thiazol-2-yl}ethyl)phenol] | – |
| 100 to 1000 | 100 to 1000 | CC(=O)Nc1ccc(CCc2ncc(-c3cccc(Nc4cc(C)ccn4)n3)s2)cc1 [Compound A-220] | – |
| – | – | CC1(c2ccnc(Nc3cccc(-c4cnc(N5CCC[C@@H](C(=O)O)C5)s4)n3)c2)OCCO1 [Compound A-558, (R)-1-{5-(6-[4-(2-methyl-[1,3]dioxolan-2-yl)pyridin-2-ylamino]pyridin-2-yl}thiazol-2-yl)piperidine-3-carboxylic acid] | IC50 [1, 3]: < 100 nM; IC50 ([2]; Tables 1-x, compounds A): > 1000 nM |
| – | – | CC(=NO)c1ccc(-c2cccc(Nc3cc(C)ccn3)n2)s1 [Compound B-15, 1-{5-[6-(4-methylpyridin-2-ylamino)pyridin-2-yl]thiophen-2-yl}ethanone oxime] | IC50 [1, 6]: < 100 nM; IC50 [2, 7]: 100 to 1000 nM |
| – | – | Cc1ccnc(Nc2cccc(-c3cnc(N(CCO)CCO)s3)n2)c1 [Compound A-544, 2-(N-(2-hydroxyethyl)-N-{5-[6-(4-methylpyridin-2-ylamino)pyridin-2-yl]thiazol-2-yl}amino)ethanol] | IC50 [1, 3]: < 100 nM; IC50 ([2]; Tables 1-x, compounds A): < 100 nM |
| – | – | CC(=O)c1ccc(-c2cccc(Nc3nccc(C)c3[N+](=O)[O-])n2)s1 [Compound B-62] | IC50 [1, 6]: > 1000 nM; IC50 [2, 7]: > 1000 nM |
| < 100 | > 1000 | Cc1ccnc(Nc2cccc(-c3cnc(C4CCN(C(=O)CC(=O)O)CC4)s3)n2)c1 [Compound A-192, 3-(4-{5-[6-(4-methylpyridin-2-ylamino)pyridin-2-yl]thiazol-2-yl}piperidin-1-yl)-3-oxopropionic acid hydrochloride] | – |
| 100 to 1000 | 100 to 1000 | CC(=O)OC(Cc1ccc(O)cc1)c1ncc(-c2cccc(Nc3cc(C)ccn3)n2)s1 (stereo not drawn) [Compound A-366] | – |
| – | – | CCN(c1ncc(-c2cccc(Nc3cc(C)ccn3)n2)s1)C1CCN(C(C)=O)CC1 [Compound A-534, 1-[4-(N-ethyl-N-{5-[6-(4-methylpyridin-2-ylamino)pyridin-2-yl]thiazol-2-yl}amino)piperidin-1-yl]ethanone] | IC50 [1, 3]: < 100 nM; IC50 ([2]; Tables 1-x, compounds A): 100 to 1000 nM |
| – | – | Cc1ccnc(Nc2cccc(-c3ccc(CO)s3)n2)c1 [Compound B-12, {5-[6-(4-methylpyridin-2-ylamino)pyridin-2-yl]thiophen-2-yl}methanol] | IC50 [1, 6]: < 100 nM; IC50 [2, 7]: 100 to 1000 nM |
| 100 to 1000 | 100 to 1000 | Cc1ccnc(Nc2cccc(-c3cnc([C@@H](N)CCC(=O)OCc4ccccc4)s3)n2)c1 [Compound A-97] | – |
| 100 to 1000 | 100 to 1000 | Cc1ccnc(Nc2cccc(-c3cnc(CC(C)(C)N)s3)n2)c1 [Compound A-333] | – |
| – | – | COc1ccnc(Nc2cccc(-c3cnc(N4CCC[C@H]4C(N)=O)s3)n2)c1 [Compound A-541, (S)-1-{5-[6-(4-methoxypyridin-2-ylamino)pyridin-2-yl]thiazol-2-yl}pyrrolidine-2-carboxamide] | IC50 [1, 3]: < 100 nM; IC50 ([2]; Tables 1-x, compounds A): 100 to 1000 nM |
| > 1000 | > 1000 | CC(=O)N[C@@H](C)c1nc(C(C)=O)c(-c2cccc(Nc3cc(C)ccn3)n2)s1 [Compound A-126] | – |
| 100 to 1000 | 100 to 1000 | Cc1ccnc(Nc2cccc(-c3cnc([C@H](C)NC(=O)[C@H](C)O)s3)n2)c1 [Compound A-32] | – |
| < 100 | 100 to 1000 | CC(=O)NC[C@H]1CC[C@H](c2ncc(-c3cccc(Nc4cc(C)ccn4)n3)s2)CC1 [Compound A-228, N-(trans-4-{5-[6-(4-methylpyridin-2-ylamino)pyridin-2-yl]thiazol-2-yl}cyclohexylmethyl)acetamide] | – |
| < 100 | 100 to 1000 | Cc1ccnc(Nc2cccc(-c3cnc(CN4CCC(N)CC4)s3)n2)c1 [Compound A-197, 1-{5-[6-(4-methylpyridin-2-ylamino)pyridin-2-yl]thiazol-2-ylmethyl}piperidin-4-ylamine] | – |
| < 100 | 100 to 1000 | Cc1ccnc(Nc2cccc(-c3cnc(N4CCC(CC(=O)O)CC4)s3)n2)c1 [Compound A-15, (1-{5-[6-(4-methylpyridin-2-ylamino)pyridin-2-yl]thiazol-2-yl}piperidin-4-yl)acetic acid dihydrochloride] | – |
| < 100 | 100 to 1000 | Cc1ccnc(Nc2cccc(-c3cnc([C@H](C)OC(=O)N(C)C)s3)n2)c1 [Compound A-345, dimethylcarbamic acid(S)-1-{5-[6-(4-methylpyridin-2-ylamino)pyridin-2-yl]thiazol-2-yl}ethyl ester] | – |
| – | – | OCC1CCN(c2ncc(-c3cccc(Nc4cc(Cl)ccn4)n3)s2)C1 (stereo not drawn) [Compound A-562, (1-{5-[6-(4-chloropyridin-2-ylamino)pyridin-2-yl]thiazol-2-yl}pyrrolidin-3-yl)methanol] | IC50 [1, 3]: < 100 nM; IC50 ([2]; Tables 1-x, compounds A): < 100 nM |

| IC50 [1, 4] [nM] | IC50 [2, 5] [nM] | Compound | further results |
| --- | --- | --- | --- |
| – | – | CCc1ccc(-c2cccc(Nc3cc(C)ccn3)n2)s1 [Compound B-91] | IC50 [1, 6]: 100 to 1000 nM; IC50 [2, 7]: > 1000 nM |
| – | – | O=C(O)CC1CCN(c2ncc(-c3cccc(Nc4ccccn4)n3)s2)CC1 [Compound A-573, (1-{5-[6-(pyridin-2-ylamino)pyridin-2-yl]thiazol-2-yl}piperidin-4-yl)acetic acid dihydrochloride] | IC50 [1, 3]: < 100 nM; IC50 ([2]; Tables 1-x, compounds A): > 1000 nM |
| 100 to 1000 | > 1000 | Cc1ccnc(Nc2cccc(-c3cnc(C4CCN(C)CC4)s3)n2)c1 [Compound A-183] | – |
| 100 to 1000 | > 1000 | Cc1ccnc(Nc2cccc(-c3cnc([C@H](C)NC(=O)C4CCC(O)CC4)s3)n2)c1 (stereo partly drawn) [Compound A-349] | – |
| < 100 | 100 to 1000 | Cc1ccnc(Nc2cccc(-c3cnc(CCC4CCC(=O)CC4)s3)n2)c1 [Compound A-172, 4-(2-{5-[6-(4-methylpyridin-2-ylamino)pyridin-2-yl]thiazol-2-yl}ethyl)cyclohexanone] | – |
| 100 to 1000 | 100 to 1000 | Cc1ccnc(Nc2cccc(-c3cnc(CNC(=O)CCO)s3)n2)c1 [Compound A-186] | – |
| – | – | Cc1ccnc(Nc2cccc(-c3cnc(CN4CCCCC4=O)s3)n2)c1 [Compound A-401] | IC50 [1, 3]: > 1000 nM; IC50 ([2]; Tables 1-x, compounds A): 100 to 1000 nM |
| 100 to 1000 | > 1000 | COc1ccc(CCc2ncc(-c3cccc(Nc4cc(C)ccn4)n3)s2)cc1 [Compound A-137] | – |
| < 100 | < 100 | COc1ccnc(Nc2cccc(-c3cnc([C@H](C)O)s3)n2)c1 [Compound A-320, (S)-1-{5-[6-(4-methoxypyridin-2-ylamino)pyridin-2-yl]thiazol-2-yl}ethanol] | – |
| < 100 | 100 to 1000 | Cc1ccnc(Nc2cccc(-c3cnc(CCc4cccc(CO)c4)s3)n2)c1 [Compound A-277, [3-(2-{5-[6-(4-methylpyridin-2-ylamino)pyridin-2-yl]thiazol-2-yl}ethyl)phenyl]methanol] | – |
| 100 to 1000 | 100 to 1000 | Cc1ccnc(Nc2cccc(-c3cnc(CC4CCC(C(=O)O)CC4)s3)n2)c1 (stereo not drawn) [Compound A-249] | – |
| 100 to 1000 | > 1000 | COc1ccc(C[C@H](NC(C)=O)c2ncc(-c3cccc(Nc4cc(C)ccn4)n3)s2)cc1OC [Compound A-139] | – |
| – | – | Cc1ccnc(Nc2cccc(-c3cnc(N4CCC(O)CC4)s3)n2)c1 [Compound A-433, 1-{5-[6-(4-methylpyridin-2-ylamino)pyridin-2-yl]thiazol-2-yl}piperidin-4-ol] | IC50 [1, 3]: < 100 nM; IC50 ([2]; Tables 1-x, compounds A): < 100 nM |
| 100 to 1000 | > 1000 | Cc1ccnc(Nc2cccc(-c3cnc([C@@H](N)C(C)C)s3)n2)c1 [Compound A-37] | – |
| 100 to 1000 | > 1000 | Cc1ccnc(Nc2cccc(-c3cnc(C4CCCC(C(=O)N5C[C@@H](O)[C@@H](O)C5)C4)s3)n2)c1 (stereo partly drawn) [Compound A-273] | – |
| – | – | Cc1ccnc(Nc2cccc(-c3cnc(C4CCN(C(=O)c5ccc(O)cc5)CC4)s3)n2)c1 [Compound A-378] | IC50 [1, 3]: 100 to 1000 nM; IC50 ([2]; Tables 1-x, compounds A): 100 to 1000 nM |
| 100 to 1000 | 100 to 1000 | Cc1ccnc(Nc2cccc(-c3cnc([C@@H](O)CO)s3)n2)c1 [Compound A-78] | – |
| – | – | CNC(=O)[C@@H]1CCCN1c1ncc(-c2cccc(Nc3cc(C)ccn3)n2)s1 [Compound A-488, N-methyl-(S)-1-{5-[6-(4-methylpyridin-2-ylamino)pyridin-2-yl]thiazol-2-yl}pyrrolidine-2-carboxamide dihydrochloride] | IC50 [1, 3]: < 100 nM; IC50 ([2]; Tables 1-x, compounds A): 100 to 1000 nM |
| – | – | Cc1ccnc(Nc2cccc(-c3cnc(N4CCC(C(=O)N(C)C)CC4)s3)n2)c1 [Compound A-434] | IC50 [1, 3]: 100 to 1000 nM; IC50 ([2]; Tables 1-x, compounds A): > 1000 nM |
| – | – | COc1ccnc(Nc2cccc(-c3ccc(C(C)=O)s3)n2)c1 [Compound B-17, 1-{5-[6-(4-methoxypyridin-2-ylamino)pyridin-2-yl]thiophen-2-yl}ethanone] | IC50 [1, 6]: < 100 nM; IC50 [2, 7]: 100 to 1000 nM |
| < 100 | < 100 | Cc1ccnc(Nc2cccc(-c3cnc(CC(C)(C)NS(C)(=O)=O)s3)n2)c1 [Compound A-337, N-(1,1-dimethyl-2-{5-[6-(4-methylpyridin-2-ylamino)pyridin-2-yl]-thiazol-2-yl}ethyl)methanesulfonamide] | – |
